Biological target: Histone deacetylase 4 (Homo sapiens, UniProt P56524)
Assay: Inhibition Assay: Human recombinant HDAC4 was expressed in full length form (aa 2-1084) in Sf9 insect cells (obtained from ATCC) using baculovirus generated with Bac-to-Bac system (Invitrogen). Test compounds were serially diluted to reach final test concentrations from 0.003 uM to 100 uM. HDAC4 and test compounds were incubated in 25 mM Tris buffer pH 8.0 containing 137 mM NaCl, 2.7 mM KCl, 1 mM MgCl2 and 0.05% (w/v) bovine serum albumine for 2 hours at room temperature in presence of 10 uM of acetyl-Gly-Ala-Lys(E-trifluoroacetyl)-AMC (AMC=7-amino-4-methyl coumarin) in a final volume of 200 ul. Control wells with HDAC4 only (positive control) and without HDAC4 (negative control) were included on the microplate. Bovine trypsin (10 ul of a 0.4 mg/ml solution) was added and the plate incubated for additional 15 minutes at room temperature. The plate was placed in a fluorescence microplate reader, and read at an excitation wavelength of 360 nm and an emission wavelength of 450 nm.

Histone deacetylase 4, sequence (P56524 whole entry, the tested form may be a part): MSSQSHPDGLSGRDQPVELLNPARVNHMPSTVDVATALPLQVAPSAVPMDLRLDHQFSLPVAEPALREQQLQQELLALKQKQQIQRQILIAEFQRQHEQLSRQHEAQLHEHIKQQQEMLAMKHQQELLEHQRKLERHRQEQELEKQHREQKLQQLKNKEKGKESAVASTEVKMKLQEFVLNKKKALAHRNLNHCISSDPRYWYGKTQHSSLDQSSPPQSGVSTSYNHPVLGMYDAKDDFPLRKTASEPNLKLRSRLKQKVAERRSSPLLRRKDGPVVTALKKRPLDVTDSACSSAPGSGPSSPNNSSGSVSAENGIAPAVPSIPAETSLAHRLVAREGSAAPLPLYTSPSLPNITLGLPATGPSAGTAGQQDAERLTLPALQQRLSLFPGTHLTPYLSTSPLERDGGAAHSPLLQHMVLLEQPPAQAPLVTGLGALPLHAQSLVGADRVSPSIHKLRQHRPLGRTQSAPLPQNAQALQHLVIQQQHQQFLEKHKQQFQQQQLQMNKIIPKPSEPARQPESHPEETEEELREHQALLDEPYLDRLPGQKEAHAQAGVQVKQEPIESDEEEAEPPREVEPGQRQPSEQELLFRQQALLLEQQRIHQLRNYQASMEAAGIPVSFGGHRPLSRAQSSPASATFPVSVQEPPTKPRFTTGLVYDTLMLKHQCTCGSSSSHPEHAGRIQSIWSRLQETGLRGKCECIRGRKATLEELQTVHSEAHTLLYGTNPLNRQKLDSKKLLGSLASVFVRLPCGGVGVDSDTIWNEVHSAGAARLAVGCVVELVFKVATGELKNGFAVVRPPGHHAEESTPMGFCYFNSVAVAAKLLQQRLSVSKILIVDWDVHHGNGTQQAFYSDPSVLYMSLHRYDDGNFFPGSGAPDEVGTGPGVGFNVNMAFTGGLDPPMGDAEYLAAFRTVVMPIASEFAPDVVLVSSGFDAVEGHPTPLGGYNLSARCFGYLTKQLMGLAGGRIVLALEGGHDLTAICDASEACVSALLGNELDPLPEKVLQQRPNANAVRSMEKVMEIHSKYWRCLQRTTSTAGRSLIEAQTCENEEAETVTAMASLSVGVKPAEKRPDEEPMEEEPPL

## CCN(C)C[C@@H](C)NC(=O)c1ccc(-c2noc(C(F)(F)F)n2)cc1F
  IC50: 0.072 µM
